For assay [1], the system named is DEN-induced liver fibrosis/cirrhosis. Kind of assay: DEN-induced rat model: fibrosis/cirrhosis by Ishak score of Masson's trichrome stained liver sections. The assay is classed as in vivo, male Wistar rats. The note with it: for mode of Ishak score: vehicle mode 6; for range of Ishak score: vehicle range 2-6. On the procedure:
FIG. 2A is a bar graph depicting the Ishak score of male Wistar rats receiving weekly intraperitoneal injections of DEN (50 mg/kg) for 18 weeks and vehicle only (n=16), 0.5 mg/kg erlotinib (Erl 0.5; n=8), or 2 mg/kg erlotinib (Erl 2; n=8) during weeks 12-18.
FIG. 6A is a bar graph depicting the Ishak score of male Wistar rats receiving weekly intraperitoneal injections of DEN (50 mg/kg) for 18 weeks and vehicle only (n=8) or 18 mg/kg lapatinib (n=8) during weeks 12-18. *, significant.
Erlotinib is a drug used to treat non-small cell lung cancer and pancreatic cancer. Erlotinib specifically targets the EGFR, which is highly expressed and occasionally mutated in various forms of cancer, by binding to the adenosine triphosphate (ATP) binding site of the receptor (Raymond et al., Drugs 60 Suppl 1:15-23, 2000). To investigate erlotinib as a chemoprevention strategy for liver fibrogenesis, male Wistar rats were given a weekly intraperitoneal injection of 50 mg/kg DEN to induce cirrhosis and HCC (Lee et al., Korean J Hepatol 13:70-80, 2007). Erlotinib was administered by intraperitoneal injection daily (5× a week) during weeks 12-18 at a dose of 2 mg/kg, which is equivalent to chemotherapeutic dosing regimens in humans. […] In a separate study, the dose of erlotinib was lowered to 0.5 mg/kg.
Repeated injury to the liver causes damage to hepatocytes and activates resident macrophages called Kupffer cells. Damaged hepatocytes and activated Kupffer cells secrete cytokines and growth factors into the liver milieu, which activate hepatic stellate cells (Friedman, Gastroenterology 134:1655-69, 2008). Normally, hepatic stellate cells are quiescent and store vitamin A and fat. Upon activation, they differentiate into a myofibroblast-phenotype and express α-smooth muscle actin (α-SMA) (Friedman, Gastroenterology 134:1655-69, 2008). Activated hepatic stellate cells deposit fibrous collagen into the space of Disse acutely causing fibrosis and chronically causing cirrhosis. The degree of liver disease (fibrosis versus cirrhosis) is pathologically assessed through trichrome staining of collagen by the method of Ishak (Mod Pathol 7:690-713, 1994).
In early stages of liver fibrosis, collagen deposition is localized around the portal tracts (Ishak score 1 or 2), but it bridges between portal tracts at later stages of fibrosis (Ishak score 3 or 4) and ultimately forms nodules around regenerating hepatocytes during cirrhosis (Ishak score 5 or 6). Although there is some heterogeneity in this model, intraperitoneal administration of DEN causes, on average, an Ishak score 0.8 (range 0-2) fibrosis after 8 weeks, an Ishak score 4.1 (range 3-6) fibrosis/cirrhosis after 12 weeks, and an Ishak score 5.1 (range 4-6) cirrhosis after 18 weeks. Consistent with this, hepatic stellate cell activation increases over time after DEN administration as assessed by α-SMA staining.
Remarkably, erlotinib inhibited fibrogenesis. […] The range for 16 vehicle animals was 2-6 with a mode of 6 as illustrated in FIG. 2B. […] To further examine the effects of erlotinib on liver fibrosis, α-SMA staining was performed for activated hepatic stellate cells.
To investigate lapatinib as a chemoprevention strategy for liver fibrogenesis, male Wistar rats were given a weekly intraperitoneal injection of 50 mg/kg DEN to induce cirrhosis and HCC (Lee et al., Korean J Hepatol 13:70-80, 2007). Lapatinib was administered by intraperitoneal injection daily (5× a week) during weeks 12-18 at a dose of 18 mg/kg.
Similar to erlotinib, lapatinib inhibited fibrogenesis. […] To further examine the effects of lapatinib on liver fibrosis, α-SMA staining was performed for activated hepatic stellate cells.

The test system of assay [2] is DEN-induced hepatotoxicity and liver failure. As to the kind of experiment: Liver function tests on serum (AST, TBIL, Glu) of DEN-treated rats. The settings on record: n=4. In kind it is in vivo, male Wistar rats. The procedure: FIGS. 4A, 4B, and 4C are a series of three bar graphs showing the levels of (A) aspartate transaminase (AST), (B) total bilirubin (TBIL), and (C) total glucose (Glu) in serum from rats treated with PBS for 18 weeks or DEN (50 mg/kg) for 18 weeks plus either vehicle, 0.5 mg/kg erlotinib (Erl 0.5), or 2 mg/kg erlotinib (Erl 2) during weeks 12-18. *, significant.
FIGS. 7A, 7B, and 7C are a series of three bar graphs showing levels of (A) aspartate transaminase (AST), (B) total bilirubin (TBIL), and (C) total glucose (Glu) in serum from rats treated with DEN (50 mg/kg) for 18 weeks plus either vehicle or 18 mg/kg lapatinib during weeks 12-18. *, significant.
During fibrosis, hepatic stellate cells are activated and deposit fibrous collagen into the space of Disse, the area between the hepatocytes and the sinusoid containing blood plasma. The deposition of collagen inhibits the normal exchange of nutrients and wastes between the hepatocytes and plasma resulting in hepatotoxicity and liver failure. The degree of liver toxicity and failure can be assessed by measuring several proteins or a carbohydrate present in the serum. For example, aspartate aminotransferase (AST) is an enzyme present in hepatocytes that is released into the serum when hepatocytes die. Bilirubin (TBIL) is the breakdown product of heme and its levels become elevated in the serum if hepatocytes cannot properly metabolize it. Finally, liver failure will result in lower levels of glucose (Glu) production causing serum Glu levels to drop.
The levels of AST, TBIL, and Glu were assayed in serum from rats treated with erlotinib. Male Wistar rats (n=4) were treated with PBS for 18 weeks or a weekly intraperitoneal injection of 50 mg/kg DEN for 18 weeks plus either vehicle, 0.5 mg/kg erlotinib (Erl 0.5), or 2 mg/kg erlotinib (Erl 2) between weeks 12 and 18. Whole blood was isolated from the rats and allowed to clot for 2 hours at room temperature. The blood was then spun at 2,000 rpm for 10 minutes and serum (top layer) was isolated. Liver function tests were performed on serum from the rats. In the current model, intraperitoneal administration of DEN causes both hepatotoxicity and liver failure to increase over time as assessed by these three markers. However, compared to vehicle controls, erlotinib reduced the degree of hepatotoxicity and liver failure in a dose-dependent fashion. Specifically, erlotinib decreased serum levels of AST and TBIL and increased serum levels of Glu (FIGS. 4A-C).
Levels of AST, TBIL, and Glu were assayed in serum from rats treated with lapatinib. Male Wistar rats (n=4) were treated with PBS for 18 weeks or a weekly intraperitoneal injection of 50 mg/kg DEN for 18 weeks plus either vehicle or 18 mg/kg lapatinib between weeks 12 and 18. Whole blood was isolated from the rats and allowed to clot for 2 hours at room temperature. The blood was then spun at 2,000 rpm for 10 minutes and serum (top layer) was isolated. Liver function tests were performed on serum from the rats. In the current model, intraperitoneal administration of DEN causes both hepatotoxicity and liver failure to increase over time as assessed by these three markers. However, compared to vehicle controls, lapatinib reduced the degree of hepatotoxicity and liver failure. Specifically, lapatinib decreased serum levels of AST and TBIL and increased serum levels of Glu (FIGS. 7A-C).

Where [3] appears, read: 0.5 and 2 mg/kg weeks 12-18 vs vehicle, dose-dependent.
[4] abbreviates: 18 mg/kg weeks 12-18 vs vehicle.

`C#Cc1cccc(Nc2ncnc3cc(OCCOC)c(OCCOC)cc23)c1` [erlotinib, 4-Quinazolinamine, N-(3-ethynylphenyl)-6,7-bis(2-methoxyethoxy)]: the “average Ishak score” value in assay [1] (0.5 mg/kg weeks 12-18, n=8, vehicle 4.9) was 4.3. In assay [1] (0.5 mg/kg weeks 12-18), the “mode of Ishak score” value worked out at 4 and the “range of Ishak score” value is 3-6. The “average Ishak score” value in assay [1] (2 mg/kg weeks 12-18, n=8, vehicle 4.9) was found to be 2.6. For the same compound, in assay [1] (2 mg/kg weeks 12-18), the “mode of Ishak score” value came to 2 and the “range of Ishak score” value is on record as 1-4. In assay [2] (setting [3]), the “serum level of AST” value is “decreased”, the “serum level of Glu” value is recorded as “increased” and the “serum level of TBIL” value is “decreased”.

On to `CS(=O)(=O)CCNCc1ccc(-c2ccc3ncnc(Nc4ccc(OCc5cccc(F)c5)c(Cl)c4)c3c2)o1` [lapatinib, 4-Quinazolinamine, N-(3-chloro-4-((3-fluorophenyl)methoxy)phenyl)-6-(5-(((2-(methylsulfonyl)ethyl)amino)methyl)-2-furanyl)], for which the “average Ishak score” value in assay [1] (18 mg/kg weeks 12-18, n=8, vehicle 5.6) is 4.3. Further, in assay [2] (setting [4]), the “serum level of AST” value is recorded as “decreased”, the “serum level of Glu” value is listed as “increased” and the “serum level of TBIL” value is “decreased”.

(Values after patent US9072741B2, “Methods of treating liver fibrosis and pre-cirrhosis with epidermal growth factor receptor inhibitors” (The General Hospital Corporation, priority 2009, dated 2015).)
